Assay results from US10758531B2, “Regimens and compositions for treating HIV infections and AIDS” (ViiV Healthcare Company, priority 2016, dated 2020).

How the values were obtained:
[1] = molecular target: T1, UGT1A3 (Homo sapiens, UniProt P35503); conditions: in vitro; cited from earlier work
T1 sequence (P35503 29-534): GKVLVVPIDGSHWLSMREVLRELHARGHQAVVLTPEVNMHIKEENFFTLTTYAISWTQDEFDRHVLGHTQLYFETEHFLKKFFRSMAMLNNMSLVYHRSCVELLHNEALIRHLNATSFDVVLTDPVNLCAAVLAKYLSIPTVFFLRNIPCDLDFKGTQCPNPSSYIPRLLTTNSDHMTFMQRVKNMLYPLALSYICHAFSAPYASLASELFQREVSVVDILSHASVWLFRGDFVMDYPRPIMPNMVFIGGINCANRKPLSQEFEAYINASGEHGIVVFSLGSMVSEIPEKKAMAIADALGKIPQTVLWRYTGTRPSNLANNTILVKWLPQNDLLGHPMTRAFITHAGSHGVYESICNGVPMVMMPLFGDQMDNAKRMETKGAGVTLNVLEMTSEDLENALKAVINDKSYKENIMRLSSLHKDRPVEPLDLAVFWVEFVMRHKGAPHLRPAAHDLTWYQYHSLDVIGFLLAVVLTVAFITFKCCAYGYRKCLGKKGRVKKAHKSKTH

[2] = molecular target: T2, UGT1A1 (Homo sapiens, UniProt P22309); conditions: cited from earlier work
T2 sequence (P22309 26-533): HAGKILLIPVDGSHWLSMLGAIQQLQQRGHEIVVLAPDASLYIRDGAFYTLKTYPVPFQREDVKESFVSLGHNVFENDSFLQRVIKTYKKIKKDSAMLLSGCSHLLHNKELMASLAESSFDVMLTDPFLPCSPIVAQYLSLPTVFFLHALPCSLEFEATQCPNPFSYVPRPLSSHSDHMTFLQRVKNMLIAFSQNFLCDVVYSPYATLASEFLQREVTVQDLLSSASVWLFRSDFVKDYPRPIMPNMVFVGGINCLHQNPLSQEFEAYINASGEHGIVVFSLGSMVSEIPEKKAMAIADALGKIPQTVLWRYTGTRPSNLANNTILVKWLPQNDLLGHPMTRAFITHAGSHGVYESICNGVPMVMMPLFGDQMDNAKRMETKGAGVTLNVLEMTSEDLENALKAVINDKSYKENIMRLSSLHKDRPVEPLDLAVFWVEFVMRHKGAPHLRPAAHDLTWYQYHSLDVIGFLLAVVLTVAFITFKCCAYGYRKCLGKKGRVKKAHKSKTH

[3] = molecular target: P-gp (Homo sapiens, UniProt P08183); conditions: in vitro; cited from earlier work
[4] = molecular target: T3, UGT1A9 (Homo sapiens, UniProt O60656); conditions: in vitro; cited from earlier work
T3 sequence (O60656 26-530): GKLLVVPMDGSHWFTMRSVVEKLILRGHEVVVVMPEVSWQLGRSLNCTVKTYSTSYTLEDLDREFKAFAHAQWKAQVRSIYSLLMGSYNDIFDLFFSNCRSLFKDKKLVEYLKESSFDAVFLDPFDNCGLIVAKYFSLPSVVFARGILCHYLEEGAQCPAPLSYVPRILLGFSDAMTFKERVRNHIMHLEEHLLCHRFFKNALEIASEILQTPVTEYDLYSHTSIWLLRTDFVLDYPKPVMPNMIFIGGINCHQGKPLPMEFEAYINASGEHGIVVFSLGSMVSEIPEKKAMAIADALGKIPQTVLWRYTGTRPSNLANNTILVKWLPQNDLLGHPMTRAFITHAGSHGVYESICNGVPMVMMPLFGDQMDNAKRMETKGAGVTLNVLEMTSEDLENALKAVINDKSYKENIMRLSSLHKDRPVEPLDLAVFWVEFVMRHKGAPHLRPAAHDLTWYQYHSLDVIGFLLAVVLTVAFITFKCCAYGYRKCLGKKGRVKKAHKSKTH

[5] = molecular target: CYP3A4 (Homo sapiens, UniProt P08684); conditions: cited from earlier work
[6] = molecular target: T4, BCRP (Homo sapiens, UniProt Q9UNQ0); conditions: in vitro; cited from earlier work
T4 sequence (Q9UNQ0 1-655): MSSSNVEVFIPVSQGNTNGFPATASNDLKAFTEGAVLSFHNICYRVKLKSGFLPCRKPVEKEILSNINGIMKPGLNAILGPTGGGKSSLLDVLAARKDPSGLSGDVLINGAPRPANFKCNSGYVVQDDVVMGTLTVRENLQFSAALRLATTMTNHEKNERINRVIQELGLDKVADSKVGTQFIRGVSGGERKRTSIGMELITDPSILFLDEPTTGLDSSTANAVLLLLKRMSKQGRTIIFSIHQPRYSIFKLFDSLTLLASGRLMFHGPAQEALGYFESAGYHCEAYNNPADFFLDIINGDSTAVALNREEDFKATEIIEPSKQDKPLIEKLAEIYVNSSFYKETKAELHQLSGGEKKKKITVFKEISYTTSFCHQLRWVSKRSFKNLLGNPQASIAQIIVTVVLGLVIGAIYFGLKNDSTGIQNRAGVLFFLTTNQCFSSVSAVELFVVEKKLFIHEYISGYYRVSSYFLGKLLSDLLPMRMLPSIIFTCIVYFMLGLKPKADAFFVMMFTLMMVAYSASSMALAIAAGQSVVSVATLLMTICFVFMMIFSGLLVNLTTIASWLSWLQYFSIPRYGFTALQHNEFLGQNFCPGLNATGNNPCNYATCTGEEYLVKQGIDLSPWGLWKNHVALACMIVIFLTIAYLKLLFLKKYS

[7] = Drug-drug interactions: effect on concentration on co-administration (Table 1)
[8] = test system: CYP enzymes; conditions: rilpivirine 25 mg once daily; cited from earlier work
[9] = molecular target: T5, human cellular DNA polymerase α (Homo sapiens, UniProt P09884); conditions: cited from earlier work
T5 sequence (P09884 1-1462): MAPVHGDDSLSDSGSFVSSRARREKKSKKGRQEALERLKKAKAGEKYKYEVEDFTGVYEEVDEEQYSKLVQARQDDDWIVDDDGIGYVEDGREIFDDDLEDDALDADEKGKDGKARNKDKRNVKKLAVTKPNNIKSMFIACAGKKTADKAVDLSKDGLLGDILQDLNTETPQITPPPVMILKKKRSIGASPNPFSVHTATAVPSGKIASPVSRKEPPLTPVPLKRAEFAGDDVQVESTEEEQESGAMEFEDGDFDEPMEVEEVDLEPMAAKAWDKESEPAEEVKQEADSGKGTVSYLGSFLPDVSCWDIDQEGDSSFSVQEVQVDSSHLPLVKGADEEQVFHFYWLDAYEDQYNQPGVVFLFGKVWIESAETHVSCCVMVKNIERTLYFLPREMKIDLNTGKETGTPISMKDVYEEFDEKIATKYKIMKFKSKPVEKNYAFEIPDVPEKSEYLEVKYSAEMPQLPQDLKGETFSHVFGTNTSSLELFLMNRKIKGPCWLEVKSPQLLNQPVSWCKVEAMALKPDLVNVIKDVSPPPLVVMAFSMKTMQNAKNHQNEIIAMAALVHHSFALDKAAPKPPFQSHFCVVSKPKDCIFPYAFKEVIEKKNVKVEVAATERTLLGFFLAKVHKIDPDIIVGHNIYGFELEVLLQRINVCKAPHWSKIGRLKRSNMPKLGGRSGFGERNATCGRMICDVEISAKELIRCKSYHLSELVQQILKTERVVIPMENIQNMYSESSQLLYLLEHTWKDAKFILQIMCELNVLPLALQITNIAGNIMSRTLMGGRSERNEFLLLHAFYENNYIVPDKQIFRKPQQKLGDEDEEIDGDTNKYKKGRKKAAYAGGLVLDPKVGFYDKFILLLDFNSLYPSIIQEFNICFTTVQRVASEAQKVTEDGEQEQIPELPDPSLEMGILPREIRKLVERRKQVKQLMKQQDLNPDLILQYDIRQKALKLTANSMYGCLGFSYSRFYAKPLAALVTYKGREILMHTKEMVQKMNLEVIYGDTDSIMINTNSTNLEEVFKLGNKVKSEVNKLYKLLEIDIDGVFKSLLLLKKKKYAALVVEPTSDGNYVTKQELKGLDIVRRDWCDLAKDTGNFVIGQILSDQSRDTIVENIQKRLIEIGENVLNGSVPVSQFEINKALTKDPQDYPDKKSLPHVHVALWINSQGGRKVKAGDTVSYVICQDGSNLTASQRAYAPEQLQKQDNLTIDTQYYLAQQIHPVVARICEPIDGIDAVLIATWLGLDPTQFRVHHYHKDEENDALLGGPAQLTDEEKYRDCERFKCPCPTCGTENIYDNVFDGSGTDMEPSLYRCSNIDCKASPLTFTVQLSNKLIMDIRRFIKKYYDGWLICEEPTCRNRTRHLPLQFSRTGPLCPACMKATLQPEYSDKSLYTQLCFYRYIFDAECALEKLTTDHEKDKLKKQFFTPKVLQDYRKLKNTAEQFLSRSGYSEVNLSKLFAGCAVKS

[10] = molecular target: T6, human cellular DNA polymerase γ (Homo sapiens, UniProt P54098); conditions: cited from earlier work
T6 sequence (P54098 1-1239): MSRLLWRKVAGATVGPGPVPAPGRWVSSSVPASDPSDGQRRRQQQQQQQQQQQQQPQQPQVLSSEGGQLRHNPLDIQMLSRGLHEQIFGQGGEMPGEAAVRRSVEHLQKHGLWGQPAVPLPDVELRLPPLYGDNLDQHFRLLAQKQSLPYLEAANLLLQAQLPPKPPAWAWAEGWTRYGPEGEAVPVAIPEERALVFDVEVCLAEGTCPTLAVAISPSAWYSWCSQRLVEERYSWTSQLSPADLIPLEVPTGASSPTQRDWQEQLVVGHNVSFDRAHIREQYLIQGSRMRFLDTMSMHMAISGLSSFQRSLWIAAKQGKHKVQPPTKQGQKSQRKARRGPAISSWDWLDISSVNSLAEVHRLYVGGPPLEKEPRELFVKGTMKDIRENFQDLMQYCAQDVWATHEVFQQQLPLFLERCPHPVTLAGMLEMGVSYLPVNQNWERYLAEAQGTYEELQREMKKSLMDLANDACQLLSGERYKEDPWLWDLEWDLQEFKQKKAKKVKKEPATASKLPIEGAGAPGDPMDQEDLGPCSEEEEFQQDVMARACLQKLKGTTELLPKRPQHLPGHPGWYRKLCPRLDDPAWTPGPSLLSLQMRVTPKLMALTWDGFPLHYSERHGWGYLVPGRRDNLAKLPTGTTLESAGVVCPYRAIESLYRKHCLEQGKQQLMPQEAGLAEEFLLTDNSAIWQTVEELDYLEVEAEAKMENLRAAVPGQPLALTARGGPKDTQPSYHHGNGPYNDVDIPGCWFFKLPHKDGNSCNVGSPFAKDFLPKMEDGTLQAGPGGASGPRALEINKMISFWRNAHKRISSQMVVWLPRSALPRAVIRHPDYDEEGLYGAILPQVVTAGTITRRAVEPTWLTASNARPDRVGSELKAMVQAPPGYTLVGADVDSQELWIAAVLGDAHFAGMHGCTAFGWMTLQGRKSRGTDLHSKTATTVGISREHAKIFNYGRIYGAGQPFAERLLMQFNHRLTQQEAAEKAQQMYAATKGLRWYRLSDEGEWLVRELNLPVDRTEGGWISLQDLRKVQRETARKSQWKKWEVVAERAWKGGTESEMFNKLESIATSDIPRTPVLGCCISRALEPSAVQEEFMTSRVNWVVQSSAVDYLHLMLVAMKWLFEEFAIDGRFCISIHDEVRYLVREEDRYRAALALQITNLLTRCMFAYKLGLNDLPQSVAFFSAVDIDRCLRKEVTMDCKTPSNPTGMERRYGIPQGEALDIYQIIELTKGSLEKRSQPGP

[11] = test system: CYP3A; conditions: cited from earlier work
[12] = molecular target: human cellular DNA polymerase β (Homo sapiens, UniProt P06746); conditions: cited from earlier work

CYP3A4, sequence (P08684 whole entry): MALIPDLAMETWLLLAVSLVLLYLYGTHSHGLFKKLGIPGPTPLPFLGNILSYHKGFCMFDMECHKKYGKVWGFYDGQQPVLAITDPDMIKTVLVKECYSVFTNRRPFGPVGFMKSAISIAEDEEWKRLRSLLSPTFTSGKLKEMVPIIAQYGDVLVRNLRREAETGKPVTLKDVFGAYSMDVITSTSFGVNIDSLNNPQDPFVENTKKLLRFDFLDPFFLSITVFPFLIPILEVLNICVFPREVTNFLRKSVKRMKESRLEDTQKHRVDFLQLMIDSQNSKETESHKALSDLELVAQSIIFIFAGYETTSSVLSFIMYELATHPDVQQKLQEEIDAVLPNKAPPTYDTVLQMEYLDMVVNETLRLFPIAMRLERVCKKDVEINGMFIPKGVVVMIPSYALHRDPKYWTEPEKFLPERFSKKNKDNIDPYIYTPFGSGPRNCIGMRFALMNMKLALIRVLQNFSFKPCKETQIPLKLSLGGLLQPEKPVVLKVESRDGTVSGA
P-gp, sequence (P08183 whole entry): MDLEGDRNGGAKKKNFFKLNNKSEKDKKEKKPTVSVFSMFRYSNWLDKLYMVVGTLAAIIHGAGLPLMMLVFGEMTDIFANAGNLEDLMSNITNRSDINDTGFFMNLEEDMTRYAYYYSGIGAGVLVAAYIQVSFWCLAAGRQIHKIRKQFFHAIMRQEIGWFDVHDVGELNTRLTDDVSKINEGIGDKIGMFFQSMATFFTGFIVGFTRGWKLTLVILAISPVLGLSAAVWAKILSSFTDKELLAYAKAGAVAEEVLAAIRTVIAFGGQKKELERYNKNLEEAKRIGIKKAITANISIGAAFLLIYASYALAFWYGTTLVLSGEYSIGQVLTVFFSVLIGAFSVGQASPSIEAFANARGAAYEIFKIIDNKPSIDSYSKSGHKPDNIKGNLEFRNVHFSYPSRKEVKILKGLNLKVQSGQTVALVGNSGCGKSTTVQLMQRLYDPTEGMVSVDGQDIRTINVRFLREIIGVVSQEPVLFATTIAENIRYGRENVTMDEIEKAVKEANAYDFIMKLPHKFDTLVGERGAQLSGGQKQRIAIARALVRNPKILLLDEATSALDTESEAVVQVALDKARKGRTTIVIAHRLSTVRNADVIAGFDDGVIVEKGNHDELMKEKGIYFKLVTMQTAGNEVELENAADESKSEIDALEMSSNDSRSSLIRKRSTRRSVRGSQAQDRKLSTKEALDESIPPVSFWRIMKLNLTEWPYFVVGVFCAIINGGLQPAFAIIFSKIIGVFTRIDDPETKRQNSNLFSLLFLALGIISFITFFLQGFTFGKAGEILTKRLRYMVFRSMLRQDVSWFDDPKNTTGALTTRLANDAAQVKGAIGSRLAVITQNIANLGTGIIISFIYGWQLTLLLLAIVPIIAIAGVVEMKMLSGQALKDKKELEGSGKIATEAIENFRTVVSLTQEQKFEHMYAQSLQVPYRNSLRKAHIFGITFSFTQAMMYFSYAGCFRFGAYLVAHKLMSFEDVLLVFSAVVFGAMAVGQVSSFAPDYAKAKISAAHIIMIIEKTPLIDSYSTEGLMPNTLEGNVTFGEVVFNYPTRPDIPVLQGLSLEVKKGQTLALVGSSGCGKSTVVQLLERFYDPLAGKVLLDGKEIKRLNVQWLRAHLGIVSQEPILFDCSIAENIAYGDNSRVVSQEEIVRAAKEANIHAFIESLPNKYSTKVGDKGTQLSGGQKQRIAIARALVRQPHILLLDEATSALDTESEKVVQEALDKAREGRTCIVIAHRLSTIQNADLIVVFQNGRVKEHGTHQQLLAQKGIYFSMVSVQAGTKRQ

SMILES: O=C(NCc1c(F)cc(F)cc1F)c1cn2c(c(O)c1=O)C(=O)N1[C@H]3CC[C@H](C3)O[C@@H]1C2 [Bictegravir, (2R,5S,13aR)-8-hidroxi-7,9-dioxo-N-[(2,4,6-trifluorofenil)metil]-2,3,4,5,7,9,13,13a-octahidro-2,5-metanopirido [1′,2′:4,5]pirazino[2,1-b][1,3]oxazepina-10-carboxamida]
- Substrate of UGT1A3 [1]: substrate
- Metabolic clearance through UGT1A1 [2]: metabolically cleared
- Substrate of P-gp [3]: substrate
- Substrate of UGT1A9 [4]: substrate
- Metabolic clearance through CYP3A4 [5]: metabolically cleared
- Substrate of BCRP [6]: substrate

SMILES: CN(C)C(=N)N=C(N)N [Metformin]
- Effect on Concentration ([7]; concomitant use of metformin and a composition of the invention): ↑Metformin

SMILES: CCC(=O)C(CC(C)N(C)C)(c1ccccc1)c1ccccc1 (centres unmarked) [Methadone]
- Effect on Concentration ([7]; concomitant use of methadone and a composition of the invention): ↔Methadone

SMILES: CO[C@H]1/C=C/O[C@@]2(C)Oc3c(C)c(O)c4c(c3C2=O)C2=NC3(CCN(CC(C)C)CC3)NC2=C(NC(=O)/C(C)=C\C=C\[C@H](C)[C@H](O)[C@@H](C)[C@@H](O)[C@@H](C)[C@H](OC(C)=O)[C@@H]1C)C4=O [Rifabutin]
- Effect on Concentration ([7]; concomitant use of rifabutin and a composition of the invention): ↔Rifabutin

SMILES: Cc1cc(/C=C/C#N)cc(C)c1Nc1ccnc(Nc2ccc(C#N)cc2)n1 [Rilpivirine, 4-[[4-[[4-[(E)-2-cyanoethenyl]-2,6-dimethylphenyl]amino]-2-pyrimidinyl]amino]benzonitrile]
- Effect on the exposure of medicinal products metabolized by CYP enzymes [8]: not likely to have a clinically relevant effect
- Inhibition of human cellular DNA polymerase α [9]: does not inhibit
- Inhibition of human cellular DNA polymerase γ [10]: does not inhibit
- Metabolism by CYP3A [11]: primarily metabolized
- Inhibition of human cellular DNA polymerase β [12]: does not inhibit
